Experimental data taken from PubChem BioAssay AID248 (DTP/NCI, 2004).
Values joined by “and” are separate entries in the source; they are usually repeats but may differ in a detail not shown here. Equal entries are not always repeated. Inconclusive results and toxic doses are left out. Cut-off read from the data, not from the text of the source: active = T/C of 150% or more; inactive = T/C below 125%.

Tested on: L1210 leukemia ip in BDF1 mice, survival T/C
Test: NCI In Vivo Anticancer Drug Screen. Data for tumor model L1210 Leukemia (intraperitoneal) in B6D2F1 (BDF1) mice
Conditions: endpoint: mean survival time, higher = longer survival
Summary of the method: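 Tumor cells were implanted, animals were treated, and survival was followed. The result divides the treated measurement by the vehicle-control measurement.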

[1] = dose: 100.0 mg/kg/injection, schedule: Q04DX003 (ip), vehicle: saline with Tween-80
[2] = dose: 200.0 mg/kg/injection, schedule: Q04DX003 (ip), vehicle: saline with Tween-80
[3] = dose: 400.0 mg/kg/injection, schedule: Q04DX003 (ip), vehicle: saline with Tween-80
[4] = dose: 50.0 mg/kg/injection, schedule: Q01DX009 (ip), vehicle: saline
[5] = dose: 100.0 mg/kg/injection, schedule: Q01DX009 (ip), vehicle: saline
[6] = dose: 100.0 mg/kg/injection, schedule: Q04DX003 (ip), vehicle: saline
[7] = dose: 200.0 mg/kg/injection, schedule: Q04DX003 (ip), vehicle: saline
[8] = dose: 25.0 mg/kg/injection, schedule: Q01DX001 (ip), vehicle: saline
[9] = dose: 50.0 mg/kg/injection, schedule: Q01DX001 (ip), vehicle: saline
[10] = dose: 100.0 mg/kg/injection, schedule: Q01DX001 (ip), vehicle: saline
[11] = dose: 100.0 mg/kg/injection, schedule: Q04DX002 (ip), vehicle: Klucel (hydroxypropylcellulose) (HPC)
[12] = dose: 200.0 mg/kg/injection, schedule: Q04DX002 (ip), vehicle: Klucel (hydroxypropylcellulose) (HPC)
[13] = dose: 400.0 mg/kg/injection, schedule: Q04DX002 (ip), vehicle: Klucel (hydroxypropylcellulose) (HPC)
[14] = dose: 100.0 mg/kg/injection, schedule: Q04DX003 (ip), vehicle: Klucel (hydroxypropylcellulose) (HPC)
[15] = dose: 200.0 mg/kg/injection, schedule: Q04DX003 (ip), vehicle: Klucel (hydroxypropylcellulose) (HPC)
[16] = dose: 75.0 mg/kg/injection, schedule: Q01DX001 (ip), vehicle: saline
[17] = dose: 100.0 mg/kg/injection, schedule: Q01DX009 (ip), vehicle: saline with Tween-80
[18] = dose: 200.0 mg/kg/injection, schedule: Q01DX009 (ip), vehicle: saline with Tween-80
[19] = dose: 400.0 mg/kg/injection, schedule: Q01DX009 (ip), vehicle: saline with Tween-80
[20] = dose: 100.0 mg/kg/injection, schedule: Q01DX001 (ip), vehicle: carboxymethylcellulose (CMC)
[21] = dose: 200.0 mg/kg/injection, schedule: Q01DX001 (ip), vehicle: carboxymethylcellulose (CMC)
[22] = dose: 200.0 mg/kg/injection, schedule: Q01DX009 (ip), vehicle: saline
[23] = dose: 400.0 mg/kg/injection, schedule: Q04DX003 (ip), vehicle: Klucel (hydroxypropylcellulose) (HPC)

Measured: T/C

Cc1ccc(C(=O)CCCCl)c(C)c1
inactive: [1] 99 % of control | [2] 94 % of control | [3] 96 % of control

Cc1cc2nc(Cc3ccccc3)[nH]c2cc1C
inactive: dose: 50.0 mg/kg/injection, schedule: Q01DX009 (ip), vehicle: saline with Tween-80 90 % of control

COc1ccc(Cc2nccc3c(OC)c(OC)ccc23)cc1OC
inactive: dose: 25.0 mg/kg/injection, schedule: Q01DX009 (ip), vehicle: saline 98 % of control | dose: 25.0 mg/kg/injection, schedule: Q04DX003 (ip), vehicle: saline 107 % of control | [4] 102 % of control | dose: 50.0 mg/kg/injection, schedule: Q04DX003 (ip), vehicle: saline 93 % of control | [5] 93 % of control | [6] 96 % of control and 103 % of control | [7] 86 % of control

CCCCCCCCCCCCCCCCCCNc1nc(SC)ncc1C(=O)OCC
inactive: [8] 103 % of control | [9] 102 % of control | [10] 101 % of control and 102 % of control

CCCCS(=O)(=O)C1C2CCC(O2)C1S(=O)(=O)CCCC (centres undefined)
inactive: [11] 92 % of control | [12] 105 % of control | [13] 101 % of control

Cc1cc(C2=NCCN2)ccc1NC(=O)c1ccc(C(=O)Nc2ccc(C3=NCCN3)cc2C)cc1
inactive: dose: 15.0 mg/kg/injection, schedule: Q01DX Z (ip), vehicle: saline 100 % of control | dose: 30.0 mg/kg/injection, schedule: Q01DX Z (ip), vehicle: saline 106 % of control | dose: 60.0 mg/kg/injection, schedule: Q01DX Z (ip), vehicle: saline 110 % of control

O=P(O)(O)Cc1cccc2ccccc12
inactive: [14] 92 % of control | [1] 96 % of control | [15] 89 % of control | [2] 96 % of control | [3] 96 % of control

C[n+]1cc2c(CO)cc(CO)cc2c2ccccc21
inactive: [16] 97 % of control | dose: 150.0 mg/kg/injection, schedule: Q01DX001 (ip), vehicle: saline 95 % of control | dose: 300.0 mg/kg/injection, schedule: Q01DX001 (ip), vehicle: saline 97 % of control

CCO/C=C(\C#N)C(=O)O
inactive: [17] 95 % of control | [1] 98 % of control | [18] 98 % of control | [2] 104 % of control | [19] 102 % of control | [3] 100 % of control

CCCCCCCCN1N=CC(CC)C1CCC (centres undefined)
inactive: dose: 50.0 mg/kg/injection, schedule: Q01DX001 (ip), vehicle: carboxymethylcellulose (CMC) 105 % of control | [20] 88 % of control | [21] 92 % of control

CCOC(=O)CP(=O)(OCC)OCC
inactive: [5] 103 % of control | [6] 109 % of control | [22] 106 % of control | [7] 102 % of control | dose: 400.0 mg/kg/injection, schedule: Q01DX009 (ip), vehicle: saline 99 % of control | dose: 400.0 mg/kg/injection, schedule: Q04DX003 (ip), vehicle: saline 113 % of control

CCCCC(CC)COC(C)=O (centres undefined)
inactive: [17] 94 % of control | [1] 98 % of control | [18] 102 % of control | [2] 93 % of control | [19] 91 % of control | [3] 92 % of control

O=C(Nc1ccc([N+](=O)[O-])cc1)N(c1ccccc1)c1cc(N2CCOCC2)ccn1
inactive: [10] 91 % of control | dose: 200.0 mg/kg/injection, schedule: Q01DX001 (ip), vehicle: saline 91 % of control | dose: 400.0 mg/kg/injection, schedule: Q01DX001 (ip), vehicle: saline 88 % of control

CCOC(=O)NCCN(C)C
inactive: [4] 105 % of control | [5] 102 % of control | [6] 99 % of control | [22] 108 % of control | [7] 102 % of control

NCC(O)C(F)(F)C(F)(F)C(F)(F)F (centres undefined)
inactive: [20] 103 % of control | [21] 103 % of control | dose: 400.0 mg/kg/injection, schedule: Q01DX001 (ip), vehicle: carboxymethylcellulose (CMC) 95 % of control

CCC12CC(Br)C(C1)OC2=O (centres undefined)
inactive: dose: 100.0 mg/kg/injection, schedule: Q04DX003 (ip), vehicle: other 100 % of control | dose: 200.0 mg/kg/injection, schedule: Q04DX003 (ip), vehicle: other 95 % of control | dose: 400.0 mg/kg/injection, schedule: Q04DX003 (ip), vehicle: other 94 % of control

c1ccc(-c2n[nH]c(-c3ccccc3)c2-c2ccccc2)cc1
inactive: [1] 92 % of control | [2] 100 % of control | [3] 95 % of control

C[N+](C)(CCl)C1CCCCC1
inactive: [16] 107 % of control

O=C(Nc1ccc(C2=NCCN2)c(O)c1)c1ccc(C(=O)Nc2ccc(C3=NCCN3)c(O)c2)cc1
inactive: dose: 8.0 mg/kg/injection, schedule: Q01DX Z (ip), vehicle: carboxymethylcellulose (CMC) 103 % of control | dose: 16.0 mg/kg/injection, schedule: Q01DX Z (ip), vehicle: carboxymethylcellulose (CMC) 88 % of control | dose: 31.0 mg/kg/injection, schedule: Q01DX Z (ip), vehicle: carboxymethylcellulose (CMC) 88 % of control | dose: 62.0 mg/kg/injection, schedule: Q01DX Z (ip), vehicle: carboxymethylcellulose (CMC) 90 % of control

C=C1C(=O)N2CCCC2C(=O)N1C (centres undefined)
inactive: dose: 75.0 mg/kg/injection, schedule: Q04DX002 (ip), vehicle: saline 94 % of control | dose: 150.0 mg/kg/injection, schedule: Q04DX002 (ip), vehicle: saline 97 % of control | dose: 300.0 mg/kg/injection, schedule: Q04DX002 (ip), vehicle: saline 87 % of control

CC1CC[N+]2(CC(=O)c3ccc(Br)cc3)CCCC12 (centres undefined)
inactive: dose: 12.5 mg/kg/injection, schedule: Q01DX001 (ip), vehicle: saline 101 % of control | [8] 104 % of control | [9] 98 % of control

O=[N+]([O-])c1ccc(Nc2ccccc2)c([N+](=O)[O-])c1
inactive: dose: 50.0 mg/kg/injection, schedule: Q04DX002 (ip), vehicle: Klucel (hydroxypropylcellulose) (HPC) 103 % of control | [11] 92 % of control

O=C(N/N=C/c1ccc2c(c1)CCC2)c1ccccc1N=Cc1ccc2c(c1)CCC2
inactive: [14] 86 % of control | [15] 96 % of control | [23] 92 % of control

c1ccc(-c2coc(-c3ccccc3)c2)cc1
inactive: [11] 101 % of control | [12] 101 % of control | [13] 97 % of control

COc1ccc(C(=O)N=C(c2ccccc2)c2ccccc2)cc1
inactive: [17] 95 % of control | [14] 92 % of control | [18] 98 % of control | [15] 97 % of control | [19] 93 % of control | [23] 95 % of control

Cc1cccc(Cl)c1NC(=O)c1c(Cl)c(Cl)c(Cl)c(Cl)c1C(=O)O
inactive: [11] 110 % of control | [12] 104 % of control

COC(=O)c1cc(C(C)=O)nc2ccccc12
inactive: [1] 94 % of control | [2] 99 % of control | [3] 90 % of control

N/C(=N\[N+](=O)[O-])Nc1ccccn1
inactive: [11] 95 % of control | [12] 98 % of control | [13] 109 % of control
